A word on the Ki: it is a dissociation constant, usually derived from enzyme kinetics or from competition with a known ligand. Higher therefore signals a looser hold on the target.

Positions of bridges follow the written chain, without caps; N, C: chain ends. Non-standard residues stand in square brackets, D forms with d. Residues, ends and D or L forms follow the SMILES beside them. *: point of attachment. d1Nal = N[C@H](Cc1cccc2ccccc12)C(=O)O; Asu = N[C@@H](CCCCCC(=O)O)C(=O)O; Nphe = O=C(O)CNCc1ccccc1; Ahp = NCCCCCCC(=O)O; Bn = c1ccc(C*)cc1

The text below walks through data of BindingDB's records for doi:10.1016/s0026-0495(96)90072-4 (Sandoz Pharma, 1996).

Experiment [1] concerns the target Somatostatin receptor type 1 (Homo sapiens, UniProt P30872).
For experiment [2], the target named is Somatostatin receptor type 3 (Homo sapiens, UniProt P32745).
In experiment [3] the target is Somatostatin receptor type 2 (Homo sapiens, UniProt P30874).
Experiment [4] addresses Somatostatin receptor type 4 (Homo sapiens, UniProt P31391).
Experiment [5] addresses Somatostatin receptor type 5 (Homo sapiens, UniProt P35346).

Chain of Somatostatin receptor type 4 (P31391 whole entry): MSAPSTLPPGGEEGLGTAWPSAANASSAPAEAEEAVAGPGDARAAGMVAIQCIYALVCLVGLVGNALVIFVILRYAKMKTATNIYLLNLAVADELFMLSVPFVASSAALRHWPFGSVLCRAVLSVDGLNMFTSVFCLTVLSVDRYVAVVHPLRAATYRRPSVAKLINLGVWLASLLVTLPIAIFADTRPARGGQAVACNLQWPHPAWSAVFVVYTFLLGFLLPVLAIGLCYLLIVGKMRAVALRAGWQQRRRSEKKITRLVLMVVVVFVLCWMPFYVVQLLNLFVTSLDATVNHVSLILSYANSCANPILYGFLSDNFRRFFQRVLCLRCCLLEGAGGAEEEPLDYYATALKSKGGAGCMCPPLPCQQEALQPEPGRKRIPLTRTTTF
Chain of Somatostatin receptor type 1 (P30872 whole entry): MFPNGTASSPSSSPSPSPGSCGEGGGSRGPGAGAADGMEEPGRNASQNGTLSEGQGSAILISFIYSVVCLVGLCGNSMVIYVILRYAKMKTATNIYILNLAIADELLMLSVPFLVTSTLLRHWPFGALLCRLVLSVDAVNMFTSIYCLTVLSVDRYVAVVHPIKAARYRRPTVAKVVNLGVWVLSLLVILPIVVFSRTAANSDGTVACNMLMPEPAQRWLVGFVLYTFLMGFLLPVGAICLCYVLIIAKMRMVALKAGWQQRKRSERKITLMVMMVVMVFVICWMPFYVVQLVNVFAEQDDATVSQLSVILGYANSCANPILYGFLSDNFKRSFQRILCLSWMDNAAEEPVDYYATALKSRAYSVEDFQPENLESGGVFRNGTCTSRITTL
Chain of Somatostatin receptor type 5 (P35346 whole entry): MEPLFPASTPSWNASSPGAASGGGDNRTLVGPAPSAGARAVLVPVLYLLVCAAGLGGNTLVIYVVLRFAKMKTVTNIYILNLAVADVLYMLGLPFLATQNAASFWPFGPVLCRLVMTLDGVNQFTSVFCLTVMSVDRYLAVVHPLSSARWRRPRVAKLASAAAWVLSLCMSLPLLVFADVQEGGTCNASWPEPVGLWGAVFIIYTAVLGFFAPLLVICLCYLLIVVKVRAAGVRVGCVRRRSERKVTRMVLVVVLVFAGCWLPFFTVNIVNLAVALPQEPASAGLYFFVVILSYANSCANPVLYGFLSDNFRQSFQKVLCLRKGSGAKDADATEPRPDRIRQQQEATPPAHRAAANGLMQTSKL
Chain of Somatostatin receptor type 3 (P32745 whole entry): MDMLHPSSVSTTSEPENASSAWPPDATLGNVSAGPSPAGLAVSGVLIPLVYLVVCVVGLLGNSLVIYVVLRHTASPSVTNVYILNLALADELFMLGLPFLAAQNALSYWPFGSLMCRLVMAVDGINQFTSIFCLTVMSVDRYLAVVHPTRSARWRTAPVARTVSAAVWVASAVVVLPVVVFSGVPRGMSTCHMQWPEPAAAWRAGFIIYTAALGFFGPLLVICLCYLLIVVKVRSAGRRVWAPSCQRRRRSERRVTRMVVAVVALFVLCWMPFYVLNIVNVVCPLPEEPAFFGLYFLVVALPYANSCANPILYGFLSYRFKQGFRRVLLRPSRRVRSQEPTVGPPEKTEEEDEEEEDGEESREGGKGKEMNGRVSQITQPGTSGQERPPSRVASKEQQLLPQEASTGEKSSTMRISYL
Chain of Somatostatin receptor type 2 (P30874 whole entry): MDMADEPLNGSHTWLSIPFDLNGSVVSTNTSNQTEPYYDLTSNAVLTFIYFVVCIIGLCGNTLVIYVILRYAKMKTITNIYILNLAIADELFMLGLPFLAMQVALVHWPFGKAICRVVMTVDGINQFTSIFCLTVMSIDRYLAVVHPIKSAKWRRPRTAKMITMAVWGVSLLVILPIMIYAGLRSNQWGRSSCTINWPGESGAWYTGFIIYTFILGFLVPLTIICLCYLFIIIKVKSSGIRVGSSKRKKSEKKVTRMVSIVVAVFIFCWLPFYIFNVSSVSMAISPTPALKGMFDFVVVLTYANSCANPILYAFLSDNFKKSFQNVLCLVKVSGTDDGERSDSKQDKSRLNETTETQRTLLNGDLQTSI

As to `C[C@@H](O)[C@@H]1NC(=O)[C@H](CCCCN)NC(=O)[C@@H](Cc2c[nH]c3ccccc23)NC(=O)[C@H](Cc2ccccc2)NC(=O)[C@@H]2CCCN2C(=O)[C@H](Cc2ccccc2)NC1=O` (cyclo(PF[dW]KTF)), the Ki in experiment [1] turned out to be 631 nM; in experiment [2], 126 nM; in experiment [3] it was 0.63 nM; in experiment [4] it was 100 nM; in experiment [5], 39.8 nM.

On to `CC(C)[C@@H]1NC(=O)[C@H](CCCCN)NC(=O)[C@@H](Cc2c[nH]c3ccccc23)NC(=O)[C@H](Cc2ccc(O)cc2)NC(=O)[C@@H](NC(=O)[C@H](N)Cc2ccc3ccccc3c2)CSSC[C@@H](C(=O)N[C@H](C(N)=O)[C@@H](C)O)NC1=O` [3-(2-Naphtyl)-D-Ala-L-Cys(1)-L-Tyr-D-Trp-L-Lys-L-Val-L-Cys(1)-L-Thr-NH2], for which the Ki came out at 63.1 nM in experiment [2] and 0.5 nM in experiment [3].

For the molecule `CC(C)[C@H](NC(=O)[C@H](CCCCN)NC(=O)[C@@H](Cc1c[nH]c2ccccc12)NC(=O)[C@H](Cc1ccc(O)cc1)NC(=O)[C@H](Cc1ccccc1)NC(=O)[C@H](N)Cc1ccccc1)C(=O)N[C@@H](Cc1ccccc1)C(=O)N[C@H](Cc1cccc2ccccc12)C(N)=O` [BIM 23056] (H-[dF]FY[dW]KVF[d1Nal]-NH2), the inhibitory constant (Ki) was found to be 100 nM in experiment [1]; 100 nM in experiment [2]; 200 nM in experiment [3]; 100 nM in experiment [4]; 12.6 nM in experiment [5].

In the case of `CC(C)[C@@H]1NC(=O)[C@H](CCCCN)NC(=O)[C@@H](Cc2c[nH]c3ccccc23)NC(=O)[C@H](Cc2ccc(O)cc2)NC(=O)[C@@H](NC(=O)[C@H](N)Cc2ccccc2)CSSC[C@@H](C(=O)N[C@@H](Cc2c[nH]c3ccccc23)C(N)=O)NC1=O` [CAS_71306] (H-[dF]CY[dW]KVCW-NH2; disulfide 2-7), the Ki in experiment [3] was 0.07 nM.

As to `C[C@@H](O)[C@H](NC(=O)[C@H](Cc1ccccc1)NC(=O)[C@@H](NC(=O)[C@H](CCCCN)NC(=O)[C@@H](Cc1c[nH]c2ccccc12)NC(=O)[C@H](Cc1ccccc1)NC(=O)[C@H](Cc1ccccc1)NC(=O)[C@H](N)Cc1ccccc1)[C@@H](C)O)C(N)=O` [CAS_133073-82-2] (H-[dF]FF[dW]KTFT-NH2), the Ki came to 6.3 nM in experiment [1]; 1.99 nM in experiment [2]; 7.94 nM in experiment [3]; 15.8 nM in experiment [4]; 1.58 nM in experiment [5].

On to `C[C@@H](O)[C@@H]1NC(=O)[C@H](Cc2ccc(O)cc2)NC(=O)[C@H]([C@@H](C)O)NC(=O)[C@H](CCCCN)NC(=O)[C@H](Cc2c[nH]c3ccccc23)NC(=O)[C@H](Cc2ccccc2)NC(=O)[C@H](Cc2ccccc2)NC(=O)[C@H](CC(N)=O)NC(=O)[C@H](CCCCN)NC(=O)CCCCC[C@@H](C(=O)O)NC(=O)[C@H](CO)NC1=O` [CGP-23996] (KNFFWKTYTS[Asu]-OH; lactam N-11), for which the Ki in experiment [1] worked out at 3.98 nM; in experiment [2], 0.39 nM; in experiment [3], 0.79 nM; in experiment [4], 1.99 nM; in experiment [5], 2.51 nM.

As for `C[C@@H](O)[C@@H]1NC(=O)[C@H](CCCCN)NC(=O)[C@@H](Cc2c[nH]c3ccccc23)NC(=O)[C@H](Cc2c[nH]c3ccccc23)NC(=O)[C@H](Cc2ccccc2)NC(=O)CCCCCCNC(=O)[C@H](Cc2ccccc2)NC1=O` [L-362855] (cyclo([Ahp]FW[dW]KTF)), the Ki is 100 nM in experiment [1]; 6.3 nM in experiment [2]; 0.79 nM in experiment [3]; 100 nM in experiment [4]; 0.1 nM in experiment [5].

For the molecule `CC(=O)N(CC(=O)NC1CSSCC(C(=O)NC(Cc2c[nH]c3ccccc23)C(N)=O)NC(=O)C(C(C)C)NC(=O)C(CCCCN)NC(=O)C(Cc2c[nH]c3ccccc23)NC(=O)C(Cc2ccc(O)cc2)NC1=O)Cc1ccccc1` (stereo not drawn) [RC 160II] (Ac-[Nphe]CYWKVCW-NH2; disulfide 2-7; configuration not given here), the Ki in experiment [1] is 100 nM; in experiment [2], 100 nM; in experiment [3], 1.58 nM; in experiment [4], 100 nM; in experiment [5], 5.01 nM.

On to `CSCC[C@@H]1NC(=O)[C@@H](NC(=O)[C@H](CC(N)=O)NC(=O)[C@H](CC(C)C)NC(=O)[C@@H]2CCCN2C(=O)[C@H](CCCCN)NC(=O)[C@H](CO)NC(=O)[C@@H](NC(=O)[C@@H](NC(=O)[C@@H](NC(=O)[C@H](CC(N)=O)NC(=O)[C@@H](N)CC(=O)O)[C@@H](C)O)C(C)C)[C@@H](C)O)CSSC[C@@H](C(=O)O)NC(=O)[C@H](C)NC(=O)[C@H]([C@@H](C)O)NC(=O)[C@H](CCCN=C(N)N)NC(=O)[C@H](CO)NC(=O)[C@H](CCCCN)NC(=O)[C@H](Cc2c[nH]c3ccccc23)NC(=O)[C@H](Cc2ccccc2)NC(=O)[C@H](Cc2ccc(O)cc2)NC(=O)[C@H](CC(N)=O)NC1=O` [SS-22] (H-DNTVTSKPLNCMNYFWKSRTAC-OH; disulfide 11-22), for which the Ki in experiment [1] is 794 nM; in experiment [2], 100 nM; in experiment [3] it was 126 nM; in experiment [4], 100 nM; in experiment [5] it was 12.6 nM.

Consider `CSCC[C@H](NC(=O)[C@H](C)NC(=O)[C@@H]1CCCN1C(=O)[C@H](CC(N)=O)NC(=O)[C@@H](N)CO)C(=O)N[C@@H](C)C(=O)N1CCC[C@H]1C(=O)N[C@@H](CCCN=C(N)N)C(=O)N[C@@H](CCC(=O)O)C(=O)N[C@@H](CCCN=C(N)N)C(=O)N[C@@H](CCCCN)C(=O)N[C@@H](C)C(=O)NCC(=O)N[C@H]1CSSC[C@@H](C(=O)O)NC(=O)[C@H](CO)NC(=O)[C@H]([C@@H](C)O)NC(=O)[C@H](Cc2ccccc2)NC(=O)[C@H]([C@@H](C)O)NC(=O)[C@H](CCCCN)NC(=O)[C@H](Cc2c[nH]c3ccccc23)NC(=O)[C@H](Cc2ccccc2)NC(=O)[C@H](Cc2ccccc2)NC(=O)[C@H](CC(N)=O)NC(=O)[C@H](CCCCN)NC1=O` [SS-25] (H-SNPAMAPRERKAGCKNFFWKTFTSC-OH; disulfide 14-25), for which the Ki came to 0.79 nM in experiment [1]; 0.5 nM in experiment [2]; 0.31 nM in experiment [3]; 1 nM in experiment [4]; 0.19 nM in experiment [5].

On to `C[C@@H](OCc1ccccc1)[C@@H]1NC(=O)[C@H](CCCCN)NC(=O)[C@@H](Cc2c[nH]c3ccccc23)NC(=O)[C@H](Cc2ccccc2)NC(=O)CCCCCCNC1=O` [c[Aha-Phe-D-Trp-Lys-Thr(Bzl)]] (cyclo([Ahp]F[dW]KT(Bn))), for which the Ki in experiment [1] worked out at 398 nM; in experiment [2] it was 398 nM; in experiment [3], 2510 nM; in experiment [4], 3160 nM; in experiment [5] it was 316 nM.
